The values below come from ChEMBL document CHEMBL4330155, “NaBr-Induced Production of Brominated Azaphilones and Related Tricyclic Polyketides by the Marine-Derived Fungus Penicillium janthinellum HK1-6” (J Nat Prod, 2019).

In brackets after ≈: the same amount, converted by molar mass. Bounds are passed on as bounds.

Test [1] concerns Staphylococcus aureus. In words: Antibacterial activity against Staphylococcus aureus ATCC 43300 by XTT dye based assay. Format: functional. (Tetrazolium assays rely on reduction of a dye to a coloured formazan, in cell work by metabolically active cells.)
Test [2] concerns Staphylococcus aureus. In words: Antibacterial activity against Staphylococcus aureus ATCC 33591 by XTT dye based assay. Format: functional.
In test [3] the test system is Staphylococcus aureus. As to the kind of experiment: Antibacterial activity against Staphylococcus aureus ATCC 25923 by XTT dye based assay. The format is functional.
The subject of test [4] is Staphylococcus aureus. As to the kind of experiment: Antibacterial activity against Staphylococcus aureus ATCC 29213 by XTT dye based assay. Format: functional.
The next test concerns Enterococcus faecalis. In words: microbe, parasite or virus in culture. The format is functional. To be noted: ATCC 51299.
For a further test, the system named is Enterococcus faecium. As to the kind of experiment: Antibacterial activity against Enterococcus faecium ATCC 35667 by XTT dye based assay. Format: functional.
A further test concerns Escherichia coli. As to the kind of experiment: microbe, parasite or virus in culture. Format: functional. The conditions noted are these: ATCC 25922.
The next test deals with SMMC-7721. In words: Cytotoxicity again human SMMC7721 cells by MTT method. Format: cell-based.

Usually IC50 stands for the concentration that inhibits the measured activity by half.

Description for Enterococcus faecalis: Antibacterial activity against Enterococcus faecalis ATCC 51299 by XTT dye based assay
Description for Escherichia coli: Antibacterial activity against Escherichia coli ATCC 25922 by XTT dye based assay

As to `CN[C@H](CC(C)C)C(=O)N[C@H]1C(=O)N[C@@H](CC(N)=O)C(=O)N[C@H]2C(=O)N[C@H]3C(=O)N[C@H](C(=O)N[C@H](C(=O)O)c4cc(O)cc(O)c4-c4cc3ccc4O)[C@H](O)c3ccc(c(Cl)c3)Oc3cc2cc(c3O[C@@H]2O[C@H](CO)[C@@H](O)[C@H](O)[C@H]2O[C@H]2C[C@](C)(N)[C@H](O)[C@H](C)O2)Oc2ccc(cc2Cl)[C@H]1O.Cl` [VANCOMYCIN HYDROCHLORIDE], the MIC in the test on Staphylococcus aureus [1] is 0.78 µg/mL; against Staphylococcus aureus [2] it was 1.56 µg/mL; in the test with Staphylococcus aureus [3], 0.78 µg/mL; against Staphylococcus aureus [4], 0.78 µg/mL; against Enterococcus faecalis, more than 50 µg/mL; with Enterococcus faecium it was 0.78 µg/mL. Further, the MIC in the test on Escherichia coli was more than 50 µg/mL.
As for `Cc1cccc(O)c1C1=CC2=C(Cl)C(=O)[C@@](C)(O)C(=O)C2=CO1`, the IC50 in the test on SMMC-7721 was more than 10 µM.
As to `CCCCCC[C@H](C)/C=C(\C)C(=O)O[C@]1(C)C(=O)C2=COC(c3c(C)cccc3O)=CC2=C(Br)C1=O`, the MIC against Staphylococcus aureus [1] was determined as 12.5 µg/mL (≈ 22.4 µM); in the test on Staphylococcus aureus [2], 3.13 µg/mL (≈ 5.61 µM); with Staphylococcus aureus [3], 6.25 µg/mL (≈ 11.2 µM); with Staphylococcus aureus [4], 12.5 µg/mL (≈ 22.4 µM); against Enterococcus faecalis, 3.13 µg/mL (≈ 5.61 µM); with Enterococcus faecium it was 12.5 µg/mL (≈ 22.4 µM). Further, in the test on Escherichia coli, the MIC was more than 50 µg/mL. The IC50 in the test on SMMC-7721 was more than 10 µM.
In the test with SMMC-7721, `Cc1cccc(O)c1C1=CC2=CC(=O)[C@](C)(O)C(=O)C2=CO1` came in with an IC50 of more than 10 µM.
Take `CCCCCC[C@H](C)/C=C(\C)C(=O)O[C@@]1(C)C(=O)c2c(cc(O)c3c2C[C@H](O)C[C@]3(C)O)[C@](C)(O)C1=O`: the MIC against Staphylococcus aureus [1] is 12.5 µg/mL (≈ 24.2 µM); against Staphylococcus aureus [2], 3.13 µg/mL (≈ 6.06 µM); with Staphylococcus aureus [3] it was more than 50 µg/mL; with Staphylococcus aureus [4], 12.5 µg/mL (≈ 24.2 µM); against Enterococcus faecalis it was 12.5 µg/mL (≈ 24.2 µM); with Enterococcus faecium it was 25 µg/mL (≈ 48.4 µM). The compound further came in with an MIC against Escherichia coli of more than 50 µg/mL.
For `CCCCCC[C@H](C)/C=C(\C)C(=O)O[C@@]1(C)C(=O)C2=COC(C3=C(C)CC(O)CC3=O)=CC2=C(Cl)C1=O` (some centres not stated), the IC50 in the test on SMMC-7721 was more than 10 µM.
The same measure, in the same setting: as for `CCCCCC[C@H](C)/C=C(\C)C(=O)O[C@@]1(C)C(=O)C=C2C=C(c3c(C)cccc3O)OC=C2C1=O`, the figure is more than 10 µM.
Take `CCCCCC[C@H](C)/C=C(\C)C(=O)O[C@@]1(C)C(=O)c2c(cc(O)c3c(C)cccc23)[C@](C)(O)C1=O`: the MIC in the test with Staphylococcus aureus [1], with Staphylococcus aureus [2], against Staphylococcus aureus [3], with Staphylococcus aureus [4], in the test with Enterococcus faecalis and in the test on Enterococcus faecium was more than 50 µg/mL throughout. Also, the MIC with Escherichia coli was more than 50 µg/mL.
In the test with SMMC-7721, `CCCCCC[C@H](C)/C=C(\C)C(=O)O[C@@]1(C)C(=O)C2=COC(c3c(C)cccc3O)=CC2=C(Cl)C1=O` returned an IC50 of more than 10 µM.
`Cc1onc(-c2ccccc2)c1C(=O)N[C@@H]1C(=O)N2[C@@H]1SC(C)(C)[C@@H]2C(=O)[O-].[Na+]`: the MIC in the test with Staphylococcus aureus [1] is more than 50 µg/mL; in the test with Staphylococcus aureus [2], more than 50 µg/mL; in the test on Staphylococcus aureus [3], 0.2 µg/mL; against Staphylococcus aureus [4], 0.39 µg/mL; with Enterococcus faecalis it was more than 50 µg/mL; against Enterococcus faecium it was more than 50 µg/mL. In the test with Escherichia coli, this compound displayed an MIC of more than 50 µg/mL.
Consider `CCCCCC[C@H](C)/C=C(\C)C(=O)O[C@@]1(C)C(=O)C=C2C=C(C3=C(C)C[C@@H](O)CC3=O)OC=C2C1=O`, for which, in the test on SMMC-7721, the IC50 is more than 10 µM.
For the compound `CCCCCC[C@H](C)/C=C(\C)C(=O)O`, the MIC against Staphylococcus aureus [1] is 25 µg/mL (≈ 126 µM); with Staphylococcus aureus [2], 25 µg/mL (≈ 126 µM); against Staphylococcus aureus [3], more than 50 µg/mL; with Staphylococcus aureus [4] it was more than 50 µg/mL; in the test with Enterococcus faecalis, more than 50 µg/mL; in the test on Enterococcus faecium, more than 50 µg/mL. The compound further had an MIC with Escherichia coli of more than 50 µg/mL.
Regarding `CCCCCC[C@H](C)/C=C(\C)C(=O)O[C@]1(C)C(=O)C2=COC(C3=C(C)C[C@@H](O)CC3=O)=CC2=C(Br)C1=O`, the MIC against Staphylococcus aureus [1] turned out to be 50 µg/mL (≈ 86.9 µM); against Staphylococcus aureus [2], 12.5 µg/mL (≈ 21.7 µM); against Staphylococcus aureus [3] it was 12.5 µg/mL (≈ 21.7 µM); against Staphylococcus aureus [4], 25 µg/mL (≈ 43.4 µM); against Enterococcus faecalis it was 25 µg/mL (≈ 43.4 µM); with Enterococcus faecium it was 25 µg/mL (≈ 43.4 µM). The MIC with Escherichia coli is more than 50 µg/mL. Moreover, in the test on SMMC-7721, the IC50 was more than 10 µM.
